In patent US11897862B2 (Gilead Sciences, Inc., priority 2022, dated 2024):
Like-named read-outs stand apart in the source and are kept apart here.

Key:
Format in all cases: cell-based
[1] = system: IL-2 production in Jurkat cells; test: Jurkat IL-2 functional assay (ELISA of supernatants); conditions: Homo sapiens; for maximal fold induction: Jurkat, top of the curve fit; for EC50: overnight incubation
Procedure: (§1) Jurkat cell line (ATCC, Clone E6-1), highly expresses IKZF2 and lends it an appropriate system to screen degradation along with a functional readout. Jurkat cells were grown to 80% confluency in TC medium (RPMI containing glutamax, 10% FBS, 1% NEAA, and 1% Pen/Strep Glutamin in tissue culture flasks.
(§2) The cells were spun down at 400 g for 5 mins and counted. 100 K cells per well were added to a 96-well plate. The compounds were introduced starting at 10 μM and dilutions were made 1:10 for each compound. 100 μL of compound was added to each well for a 12-point titration. The cells were incubated at 37° C. with 5% CO2 overnight.
The following day, supernatants were collected for a functional readout using ELISA. The supernatants were diluted 1:2 and added to appropriate Human IL-2 plates for IL-2 functional readout.
The top of the curve fit for each compound is reported as the IL-2 ‘fold increase over DMSO control.’

[2] = biological target: T1, IKZF2 (Homo sapiens, UniProt Q96SW2+Q9UKS7); test: Jurkat IKZF2 degradation (flow cytometry); set-up: endogenous in cells; conditions: Jurkat cells, overnight incubation; for DC50: flow cytometry, normalized to DMSO control, read-out: IKZF2 Degradation EC50; for Dmax: maximum degradation at the highest concentration tested
Procedure: as §1, §2
Target sequence in this assay (Q9UKS7 whole entry): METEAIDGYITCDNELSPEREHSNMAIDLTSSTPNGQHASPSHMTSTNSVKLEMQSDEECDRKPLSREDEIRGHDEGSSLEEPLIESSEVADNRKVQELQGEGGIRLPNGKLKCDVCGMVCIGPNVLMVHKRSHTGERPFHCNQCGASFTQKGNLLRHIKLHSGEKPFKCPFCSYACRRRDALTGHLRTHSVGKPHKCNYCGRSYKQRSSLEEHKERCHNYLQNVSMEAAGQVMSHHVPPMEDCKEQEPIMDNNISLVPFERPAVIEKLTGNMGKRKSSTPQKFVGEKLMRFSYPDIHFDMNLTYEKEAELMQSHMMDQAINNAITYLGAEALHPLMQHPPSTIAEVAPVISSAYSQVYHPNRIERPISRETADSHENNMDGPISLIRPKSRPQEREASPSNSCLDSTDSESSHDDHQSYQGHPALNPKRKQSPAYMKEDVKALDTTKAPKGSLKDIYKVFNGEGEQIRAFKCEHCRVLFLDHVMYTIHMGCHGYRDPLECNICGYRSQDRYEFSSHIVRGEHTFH
Target sequence in this assay (Q96SW2 whole entry): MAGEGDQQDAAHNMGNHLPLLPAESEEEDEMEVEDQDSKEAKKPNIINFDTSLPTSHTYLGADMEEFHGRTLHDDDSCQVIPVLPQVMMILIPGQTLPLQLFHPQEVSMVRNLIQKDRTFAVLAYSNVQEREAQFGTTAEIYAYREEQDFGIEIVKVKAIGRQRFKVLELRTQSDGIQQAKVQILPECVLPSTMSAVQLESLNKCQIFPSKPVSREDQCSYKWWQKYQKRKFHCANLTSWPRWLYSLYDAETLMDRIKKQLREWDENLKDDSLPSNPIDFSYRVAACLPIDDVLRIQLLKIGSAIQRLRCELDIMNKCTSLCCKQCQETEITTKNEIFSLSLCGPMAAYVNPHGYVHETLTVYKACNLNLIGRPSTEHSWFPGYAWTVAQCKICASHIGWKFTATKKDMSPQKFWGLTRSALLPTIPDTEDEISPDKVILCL
Target sequence in this assay (Q16531 whole entry partner): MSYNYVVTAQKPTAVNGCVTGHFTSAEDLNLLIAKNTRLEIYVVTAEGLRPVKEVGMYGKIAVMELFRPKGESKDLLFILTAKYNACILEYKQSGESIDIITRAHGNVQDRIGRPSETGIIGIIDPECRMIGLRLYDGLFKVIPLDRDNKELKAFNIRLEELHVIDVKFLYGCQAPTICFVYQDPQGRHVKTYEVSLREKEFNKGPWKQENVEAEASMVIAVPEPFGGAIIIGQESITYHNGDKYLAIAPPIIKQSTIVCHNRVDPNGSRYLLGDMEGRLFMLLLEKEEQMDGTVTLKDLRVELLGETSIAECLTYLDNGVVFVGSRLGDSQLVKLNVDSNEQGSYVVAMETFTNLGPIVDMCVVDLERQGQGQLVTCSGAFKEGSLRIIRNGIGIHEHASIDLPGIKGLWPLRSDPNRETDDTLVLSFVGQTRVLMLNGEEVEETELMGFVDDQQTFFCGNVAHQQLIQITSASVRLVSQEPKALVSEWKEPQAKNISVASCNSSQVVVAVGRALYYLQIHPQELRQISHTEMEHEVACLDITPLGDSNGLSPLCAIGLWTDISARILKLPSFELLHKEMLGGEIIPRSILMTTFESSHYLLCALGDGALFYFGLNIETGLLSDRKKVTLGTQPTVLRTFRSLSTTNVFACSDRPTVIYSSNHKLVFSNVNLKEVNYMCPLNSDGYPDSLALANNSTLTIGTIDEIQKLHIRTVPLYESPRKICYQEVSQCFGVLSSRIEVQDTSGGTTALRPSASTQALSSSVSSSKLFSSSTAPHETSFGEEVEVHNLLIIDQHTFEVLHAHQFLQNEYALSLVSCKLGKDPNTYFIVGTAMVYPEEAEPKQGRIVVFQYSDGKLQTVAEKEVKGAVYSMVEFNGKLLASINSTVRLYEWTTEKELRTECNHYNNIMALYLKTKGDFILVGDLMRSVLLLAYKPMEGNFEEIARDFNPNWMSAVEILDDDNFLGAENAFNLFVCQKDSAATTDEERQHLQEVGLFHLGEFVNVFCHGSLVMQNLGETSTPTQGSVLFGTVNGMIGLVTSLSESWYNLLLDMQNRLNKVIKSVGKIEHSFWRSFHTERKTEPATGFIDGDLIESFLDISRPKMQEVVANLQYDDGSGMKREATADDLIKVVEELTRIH
Cells were stained with appropriate surface and intracellular antibodies and acquired by flow cytometry and analysed for degradation. […]

[3] = biological target: T1, IKZF2; test: Human whole blood IKZF2 degradation (flow cytometry, CD4/CD25/Foxp3+ Treg cells); set-up: endogenous in cells; conditions: for DC50: read-out: IKZF2 EC50
Method in brief: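 Fresh healthy-donor human whole blood stimulated with CD3/CD28 activator and serially diluted compound for 24 hrs at 37° C. IKZF2 MFI in CD4/CD25/Foxp3+ Tregs (IKZF1 MFI in CD4+ T cells) measured by flow cytometry after RBC lysis, fixation, permeabilization. EC50 and Dmax versus DMSO wells.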
Target sequence in this assay (Q9UKS7 whole entry): as the sequence (Q9UKS7 whole entry) above
Target sequence in this assay (Q96SW2 whole entry): as the sequence (Q96SW2 whole entry) above
Target sequence in this assay (Q16531 whole entry partner): as the sequence (Q16531 whole entry partner) above

[4] = biological target: T2, IKZF1 (Homo sapiens, UniProt Q13422+Q96SW2); test: HEK293 HiBiT in vitro degradation of IKZF1; conditions: for Dmax: HEK293, HEK293 HiBiT, maximum degradation at the highest concentration tested; for DC50: HEK293 HiBiT, 18-24 hr incubation, normalized to DMSO control, read-out: IKZF1 EC50
T2 construct: expressed in transfected cells
Method in brief: (§3)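 Degradation was scored as loss of HiBiT signal from C-terminally tagged IKZF1, IKZF2 or SALL4 in doxycycline-induced Flp-In T-REx HEK293 cells after overnight (18-24 h) compound treatment. EC50 and Dmax were derived from the luminescence.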

[5] = biological target: T3, SALL4 (Homo sapiens, UniProt Q96SW2+Q9UJQ4); test: HEK293 HiBiT in vitro degradation of SALL4; conditions: for DC50: 18-24 hr incubation, normalized to DMSO control, read-out: SALL4 EC50
T3 construct: expressed in transfected cells
Method in brief: as §3

[6] = biological target: T1, IKZF2; test: HEK293 IKZF2 degradation kinetics (HiBiT, timepoints 1-24 h); set-up: expressed in transfected cells; conditions: for kinact: HEK293, IKZF2, timepoints 1, 2, 3, 4.5 and 24 hour, read-out: Maximum degradation rate Kinact (converted)
Procedure: The assay technology and principles for evaluating IKZF2 degradation kinetics in HEK293 cells was identical to the HEK293 degradation assay as described above. Additional details are briefly described below.
On Day 1, Cells were grown and induced the same as described above. On Days 2 and 3, compounds for testing were dispensed via ECHO and cells were lifted and plated into compound-spotted assay plates as above. Plates were returned to the 37° C. incubator until addition of Nano-Glo lytic reagent at 1, 2, 3, 4.5, and 24 hour timepoints. At these timepoints, plates were read on Envision reader as above.
All raw data was normalized to DMSO control (final concentration: 0.5%) wells as POC and plotted out as a function of time to generate the degradation rate constant (K) value. The maximum degradation rate (Kinact) was determined by plotting the K value as a function of concentration for each compound tested. Kinact values are shown in Table 25 and the degradation rate plots as well as timecourse of degradation are shown for select compounds in FIG. 1A, FIG. 1B, FIG. 2A and FIG. 2B.
Target sequence in this assay (Q9UKS7 1-500 isoform Q9UKS7-2): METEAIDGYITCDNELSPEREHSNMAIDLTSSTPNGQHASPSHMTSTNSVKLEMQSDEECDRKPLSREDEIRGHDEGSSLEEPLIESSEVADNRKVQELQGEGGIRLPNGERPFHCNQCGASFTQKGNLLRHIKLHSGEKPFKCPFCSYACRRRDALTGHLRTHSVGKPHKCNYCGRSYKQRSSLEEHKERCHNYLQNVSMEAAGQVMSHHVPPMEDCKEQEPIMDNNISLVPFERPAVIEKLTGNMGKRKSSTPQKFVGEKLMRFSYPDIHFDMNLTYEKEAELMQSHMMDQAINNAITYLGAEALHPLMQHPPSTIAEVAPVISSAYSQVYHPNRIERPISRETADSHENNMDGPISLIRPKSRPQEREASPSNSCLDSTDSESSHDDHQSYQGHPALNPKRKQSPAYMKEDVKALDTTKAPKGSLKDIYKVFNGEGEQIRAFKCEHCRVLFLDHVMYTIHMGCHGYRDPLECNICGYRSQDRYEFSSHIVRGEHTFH
Target sequence in this assay (Q96SW2 whole entry): as the sequence (Q96SW2 whole entry) above
Target sequence in this assay (Q16531 whole entry partner): as the sequence (Q16531 whole entry partner) above

[7] = biological target: T1, IKZF2; test: HEK293 HiBiT in vitro degradation of IKZF2; set-up: expressed in transfected cells; conditions: for DC50 / IKZF2 Dmax: HEK293 HiBiT; for DC50: 18-24 hr incubation, normalized to DMSO control, read-out: IKZF2 EC50; for IKZF2 Dmax / Dmax: maximum degradation at the highest concentration tested; for Dmax: HEK293, HEK293 HiBiT
Method in brief: as §3
Target sequence in this assay (Q9UKS7 1-500 isoform Q9UKS7-2): as the sequence (Q9UKS7 1-500 isoform Q9UKS7-2) above
Target sequence in this assay (Q96SW2 whole entry): as the sequence (Q96SW2 whole entry) above
Target sequence in this assay (Q16531 whole entry partner): as the sequence (Q16531 whole entry partner) above

[8] = ELISA of supernatants, read-out: IL-2 Production Fold increase over DMSO control
[9] = read-out: increase in IL-2 production relative to DMSO control
[10] = 24 hrs incubation, IKZF2 MFI in CD4/CD25/Foxp3+ Treg cells, flow cytometry

T2 sequence (Q13422 whole entry): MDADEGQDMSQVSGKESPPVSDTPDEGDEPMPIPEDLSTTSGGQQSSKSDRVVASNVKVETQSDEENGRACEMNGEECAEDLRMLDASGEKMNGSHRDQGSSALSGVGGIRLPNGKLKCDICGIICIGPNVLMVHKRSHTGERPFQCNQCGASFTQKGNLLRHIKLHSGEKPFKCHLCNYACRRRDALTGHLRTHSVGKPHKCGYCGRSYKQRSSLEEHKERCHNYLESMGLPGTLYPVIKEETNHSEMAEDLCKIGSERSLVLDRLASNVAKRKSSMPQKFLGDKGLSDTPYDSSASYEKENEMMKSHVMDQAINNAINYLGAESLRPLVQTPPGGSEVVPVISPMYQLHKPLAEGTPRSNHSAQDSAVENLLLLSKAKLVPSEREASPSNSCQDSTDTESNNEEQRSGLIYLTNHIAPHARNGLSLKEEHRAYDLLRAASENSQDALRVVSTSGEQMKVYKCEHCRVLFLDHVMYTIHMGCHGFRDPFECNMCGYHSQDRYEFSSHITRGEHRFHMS
T2 sequence (Q96SW2 whole entry): as the sequence (Q96SW2 whole entry) above
T2 sequence (Q16531 whole entry partner): as the sequence (Q16531 whole entry partner) above
T3 sequence (Q9UJQ4 whole entry): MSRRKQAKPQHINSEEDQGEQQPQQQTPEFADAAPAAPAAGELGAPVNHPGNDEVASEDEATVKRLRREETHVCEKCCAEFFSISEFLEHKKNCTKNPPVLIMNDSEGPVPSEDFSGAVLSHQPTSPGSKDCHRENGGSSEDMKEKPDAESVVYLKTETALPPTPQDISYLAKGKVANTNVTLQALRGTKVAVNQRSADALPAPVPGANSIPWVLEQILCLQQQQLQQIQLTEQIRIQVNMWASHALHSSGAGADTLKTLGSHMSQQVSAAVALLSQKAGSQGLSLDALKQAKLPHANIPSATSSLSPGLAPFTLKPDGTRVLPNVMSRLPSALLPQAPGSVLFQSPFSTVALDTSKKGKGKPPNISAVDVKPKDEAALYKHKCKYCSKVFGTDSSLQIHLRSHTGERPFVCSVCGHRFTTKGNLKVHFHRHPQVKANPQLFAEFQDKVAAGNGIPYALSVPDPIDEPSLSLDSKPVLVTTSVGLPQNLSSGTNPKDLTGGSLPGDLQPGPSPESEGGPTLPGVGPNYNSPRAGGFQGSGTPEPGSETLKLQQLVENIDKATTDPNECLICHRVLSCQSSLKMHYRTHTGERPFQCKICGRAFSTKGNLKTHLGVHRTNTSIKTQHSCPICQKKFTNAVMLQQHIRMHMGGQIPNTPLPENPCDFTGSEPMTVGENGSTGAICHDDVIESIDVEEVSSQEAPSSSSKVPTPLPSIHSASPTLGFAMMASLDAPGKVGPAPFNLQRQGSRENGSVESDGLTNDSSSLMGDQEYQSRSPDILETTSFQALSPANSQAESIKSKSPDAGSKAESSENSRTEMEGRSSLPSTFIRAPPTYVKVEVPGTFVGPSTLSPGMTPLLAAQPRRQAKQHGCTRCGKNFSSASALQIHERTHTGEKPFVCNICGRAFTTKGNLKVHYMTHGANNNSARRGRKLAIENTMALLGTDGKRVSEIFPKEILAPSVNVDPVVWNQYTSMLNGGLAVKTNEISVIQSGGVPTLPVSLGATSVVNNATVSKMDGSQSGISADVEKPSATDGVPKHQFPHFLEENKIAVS
T3 sequence (Q96SW2 whole entry): as the sequence (Q96SW2 whole entry) above
T3 sequence (Q16531 whole entry partner): as the sequence (Q16531 whole entry partner) above

Row | Structure (SMILES) | maximal fold induction [1, 8] | maximal fold induction [1, 9] | EC50 ([1]; ELISA of supernatants) [nM] | DC50 [2] [nM] | Dmax [2] [%] | Dmax [3, 10] [%] | DC50 [3, 10] [nM] | Dmax [4] [%] | DC50 [4] [nM] | DC50 [5] [µM] | kinact [6] [s⁻¹] | DC50 [7] [nM] | IKZF2 Dmax [7] [%] | Dmax [7] [%] | IKZF2 degradation potency compared with Reference Compound B-4 ([3]; 24 hrs) | speed of IKZF2 degradation compared with Reference Compounds A-1, B-3, B-4, C-1 ([6]; HEK293) | IKZF2 Dmax [3, 10] [%] | Dmax ([5]; maximum degradation at the highest concentration tested) [%]
1 | O=C1CCC(N2Cc3c(ccc(C[C@H]4OCCC[C@@H]4NC4CCC(C(F)F)CC4)c3F)C2=O)C(=O)N1 (single isomer, unassigned) [Example 283] | 2.1 | ≥ 1.9 | 1.9 | 1.4 | 90 | 96 | 5 | 26 | 92 | > 10 | 9.44e-05 | 4 | 98 | – | – | – | – | –
2 | CC(N[C@H]1CCCC[C@@H]1Cc1ccc2c(c1F)CN(C1CCC(=O)NC1=O)C2=O)C1CCOCC1 (single isomer, unassigned) [Example 287] | 2.5 | ≥ 1.9 | 0.6 | 0.6 | 96 | 92 | 2 | 47 | 66 | > 10 | 0.000189 | 1 | – | 95 | – | – | – | –
3 | O=C1CC[C@H](N2Cc3cc(C[C@H]4CCCC[C@@H]4NC4CCC(F)(F)CC4)ccc3C2=O)C(=O)N1 (single isomer, unassigned) [Example 328] | 2.7 | ≥ 1.9 | 3.4 | 0.4 | 96 | 94 | 2 | 62 | 22 | > 10 | 0.000175 | 1 | – | 98 | – | – | – | –
4 | O=C1CCC(N2Cc3cc(C[C@H]4CCCC[C@@H]4NC4CCC(F)(F)CC4)ccc3C2=O)C(=O)N1 (stereo partly drawn) [Example 46, 3-(5-(((1R,2S)-2-((4,4-difluorocyclohexyl)amino)cyclohexyl)methyl)-1-oxoisoindolin-2-yl)piperidine-2,6-dione] | 2.7 | ≥ 1.9 | 3.5 | 2 | 95 | 96 | 3 | 29 | 33 | > 10 | 0.000158 | 1 | – | 94 | more potent | faster degradation of IKZF2 | – | –
5 | CC(N[C@H]1CCCC[C@@H]1Cc1ccc2c(c1)CN(C1CCC(=O)NC1=O)C2=O)C1CCC1 (some centres unmarked) [Example 218] | 2.2 | ≥ 1.9 | 8 | 0.8 | 93 | – | 4 | 34 | 626 | – | 0.000131 | 2 | 95 | – | – | – | 97 | –
6 | O=C1CC[C@H](N2Cc3c(ccc(C[C@H]4OCCC[C@@H]4N[C@H]4CC[C@H](F)CC4)c3F)C2=O)C(=O)N1 [Example 369] | 2 | ≥ 1.9 | 0.03 | 0.1 | 90 | – | – | – | > 1000 | > 10 | 0.000106 | 5 | – | 97 | – | – | – | –
7 | O=C1CCC(N2Cc3cc(C4CCC(Cc5ccccc5)CC4)ccc3C2=O)C(=O)N1 (centres unmarked) [Example A-1] | 1.6 | – | 10 | – | 61 | 82 | – | – | – | – | 3.89e-05 | – | – | 82 | – | – | – | 63
